# Results taken from article PMC11094307, “Marine-derived EGFR inhibitors: novel compounds targeting breast cancer growth and drug resistance” (Frontiers in Pharmacology, 2024).
# Values joined by “and” are separate entries in the source; they are usually repeats but may differ in a detail not shown here. Equal entries are not always repeated.
# Columns and labels:
# FGFR2 = FGFR2 (Homo sapiens, UniProt P21802); test: Kinase profiling; assay type: biochemical; conditions: one of the other seven tyrosine kinases
# Protocol: (§1) The experiments were conducted in accordance with the manufacturer’s guidelines (Promega). The procedure began with a kinase reaction, where 5 μL of 1× kinase buffer was utilized, and the mixture was incubated at room temperature for 60 min. This step was followed by the addition of 5 μL of ADP-Glo™ reagent to terminate the kinase reaction and to deplete any remaining ATP, with a subsequent incubation period of 40 min at room temperature. Next, 10 μL of kinase detection reagent was added to convert ADP back into ATP, and luciferase along with luciferin was introduced to facilitate ATP detection. This mixture was then incubated at room temperature for an additional 30 min. Detection was carried out using a BioTek Synergy4 instrument, and data analysis, including curve fitting and presentation, was performed using GraphPad Prism version 5.0. […]; [Song et al., 2017]; [Abou-Zied et al., 2019]).
# HER4 = HER4 (Homo sapiens, UniProt Q15303); test: Kinase profiling; assay type: biochemical
# Protocol: as §1
# MCF-10A cells = test: MTT assay, MCF-10A; assay type: cell-based, human; conditions: MCF-10A (non-tumorigenic epithelial), 10 μM
# Protocol: (§2) The cell lines MCF-7 and A431 were cultured in Dulbecco’s Modified Eagle’s Medium (DMEM, Gibco, USA), while HL-60, H1299, and A549 cells were maintained in RPMI-1640 medium (Gibco, USA). Both mediums were enriched with 10% fetal bovine serum and 1% penicillin/streptomycin. […] All cell cultures were incubated at 37°C in an atmosphere containing 5% CO2.
# (§3) Cells in the exponential growth phase were seeded into 96-well plates and allowed to adhere overnight. Subsequently, they were treated in triplicate with various concentrations of the compounds (0, 1.56, 3.13, 6.25, 12.5, 25, 50, 100 µM), […]. After 24 h, 20 µL of Methyl-thiazolyldiphenyl-tetrazolium bromide (MTT, 5 mg/mL, Thermo Fisher Scientific) was added to each well and incubated for a minimum of 4 h. Following the incubation, the medium containing the compounds and MTT was removed from each well, and 200 µL of dimethyl sulfoxide (DMSO) was added. The plates were then shaken for 10 min at 37°C to dissolve the formazan crystals. The absorbance was measured using a microplate reader (BioTek Synergy 4) at a wavelength of 490 nm.
# H1299 cells = test: MTT assay, H1299; assay type: cell-based, human; conditions: H1299 (high EGFR-expressing), 10 μM
# Protocol: as §2, §3
# ECK = ECK (Homo sapiens, UniProt P29317); test: Kinase profiling; assay type: biochemical; conditions: one of the other seven tyrosine kinases
# Protocol: (§4) The experiments were conducted in accordance with the manufacturer’s guidelines (Promega). The procedure began with a kinase reaction, where 5 μL of 1× kinase buffer was utilized, and the mixture was incubated at room temperature for 60 min. This step was followed by the addition of 5 μL of ADP-Glo™ reagent to terminate the kinase reaction and to deplete any remaining ATP, with a subsequent incubation period of 40 min at room temperature. Next, 10 μL of kinase detection reagent was added to convert ADP back into ATP, and luciferase along with luciferin was introduced to facilitate ATP detection. This mixture was then incubated at room temperature for an additional 30 min. Detection was carried out using a BioTek Synergy4 instrument, and data analysis, including curve fitting and presentation, was performed using GraphPad Prism version 5.0.
# FLT1 = FLT1 (Homo sapiens, UniProt P17948); test: Kinase profiling; assay type: biochemical; conditions: one of the other seven tyrosine kinases
# Protocol: as §4
# ABL = ABL (Homo sapiens, UniProt P00519); test: Kinase profiling; assay type: biochemical; conditions: one of the other seven tyrosine kinases
# Protocol: as §4
# FGFR3 = FGFR3 (Homo sapiens, UniProt P22607); test: Kinase profiling; assay type: biochemical; conditions: one of the other seven tyrosine kinases
# Protocol: as §4
# FAK = FAK (Homo sapiens, UniProt Q05397); test: Kinase profiling; assay type: biochemical; conditions: one of the other seven tyrosine kinases
# Protocol: as §4
# FGFR1 = FGFR1 (Homo sapiens, UniProt P11362); test: Kinase profiling; assay type: biochemical; conditions: one of the other seven tyrosine kinases
# Protocol: as §4
# EGFR L858R/T790M = target: T1, EGFR L858R/T790M (Homo sapiens, UniProt P00533, L858R/T790M); test: Kinase inhibition assay (ADP-Glo, Promega); assay type: biochemical; conditions: in vitro kinase assay; read-out: IC50 against EGFR L858R/T790M
# T1 construct: purchased Promega Corporation, USA
# Protocol: (§5) The extracellular ligand-binding domain of EGFR, tagged with His, and the intracellular tyrosine kinase (TK) domain of EGFR, tagged with GST, were acquired from Sinobiological, China. […] Cell lines including MCF-7, A549, A431, H1299, HL-60, and MCF-10A were obtained from the China Infrastructure Cell Line Resources.
# as §4
# (§6) All experiments were repeated at least three times, and the data are presented as mean ± standard deviation (SD). The statistical analyses were performed using Origin. EC50 or IC50 values were obtained by fitting the data to a four-parameter Hill model of the graph of log dose against percentage cell viability or inhibition from at least three sets of experiments. Difference between two groups were analyzed by Student’s t test (two-sided) and significance was set at p < 0.05. The specific details about statistical methods are introduced in respective figure legends.
# EGFR T790M = target: T2, EGFR T790M (Homo sapiens, UniProt P00533, T790M); test: Kinase inhibition assay (ADP-Glo, Promega); assay type: biochemical; conditions: in vitro kinase assay; read-out: IC50 against EGFR T790M
# T2 construct: purchased Promega Corporation, USA
# Protocol: as §5, §4, §6
# WT EGFR = target: T3, WT EGFR (Homo sapiens, UniProt P00533); test: Kinase inhibition assay (ADP-Glo, Promega); assay type: biochemical; conditions: in vitro kinase assay; read-out: IC50 against WT EGFR
# T3 construct: purchased Promega Corporation, USA
# Protocol: as §5, §4, §6
# EGFR L858R = target: T4, EGFR L858R (Homo sapiens, UniProt P00533, L858R); test: Kinase inhibition assay (ADP-Glo, Promega); assay type: biochemical; conditions: in vitro kinase assay; read-out: IC50 against EGFR L858R
# T4 construct: purchased Promega Corporation, USA
# Protocol: as §5, §4, §6
# EGFR kinase domain = target: T5, EGFR kinase domain (Homo sapiens, UniProt P00533); test: Differential Scanning Fluorimetry (DSF); assay type: binding; conditions: 10 µM; 52.6°C at 0 µM
# T5 construct: the intracellular tyrosine kinase (TK) domain of EGFR, tagged with GST; purchased Sinobiological, China
# Protocol: In the Differential Scanning Fluorimetry (DSF) study, concentrations of Tandyukisin-1.3, 2.5, 5, and 10 µM-were incubated with 0.05 mg/mL of the EGFR kinase domain. A control sample, containing only 5% DMSO, was used alongside the EGFR kinase domain. The thermal stability of the EGFR kinase domain was assessed using PR NT.48 (NanoTemper). The assay conditions were set to a temperature range of 25°C–95°C with a ramp rate of 1 °C/min.
# T3 sequence (P00533 25-1210): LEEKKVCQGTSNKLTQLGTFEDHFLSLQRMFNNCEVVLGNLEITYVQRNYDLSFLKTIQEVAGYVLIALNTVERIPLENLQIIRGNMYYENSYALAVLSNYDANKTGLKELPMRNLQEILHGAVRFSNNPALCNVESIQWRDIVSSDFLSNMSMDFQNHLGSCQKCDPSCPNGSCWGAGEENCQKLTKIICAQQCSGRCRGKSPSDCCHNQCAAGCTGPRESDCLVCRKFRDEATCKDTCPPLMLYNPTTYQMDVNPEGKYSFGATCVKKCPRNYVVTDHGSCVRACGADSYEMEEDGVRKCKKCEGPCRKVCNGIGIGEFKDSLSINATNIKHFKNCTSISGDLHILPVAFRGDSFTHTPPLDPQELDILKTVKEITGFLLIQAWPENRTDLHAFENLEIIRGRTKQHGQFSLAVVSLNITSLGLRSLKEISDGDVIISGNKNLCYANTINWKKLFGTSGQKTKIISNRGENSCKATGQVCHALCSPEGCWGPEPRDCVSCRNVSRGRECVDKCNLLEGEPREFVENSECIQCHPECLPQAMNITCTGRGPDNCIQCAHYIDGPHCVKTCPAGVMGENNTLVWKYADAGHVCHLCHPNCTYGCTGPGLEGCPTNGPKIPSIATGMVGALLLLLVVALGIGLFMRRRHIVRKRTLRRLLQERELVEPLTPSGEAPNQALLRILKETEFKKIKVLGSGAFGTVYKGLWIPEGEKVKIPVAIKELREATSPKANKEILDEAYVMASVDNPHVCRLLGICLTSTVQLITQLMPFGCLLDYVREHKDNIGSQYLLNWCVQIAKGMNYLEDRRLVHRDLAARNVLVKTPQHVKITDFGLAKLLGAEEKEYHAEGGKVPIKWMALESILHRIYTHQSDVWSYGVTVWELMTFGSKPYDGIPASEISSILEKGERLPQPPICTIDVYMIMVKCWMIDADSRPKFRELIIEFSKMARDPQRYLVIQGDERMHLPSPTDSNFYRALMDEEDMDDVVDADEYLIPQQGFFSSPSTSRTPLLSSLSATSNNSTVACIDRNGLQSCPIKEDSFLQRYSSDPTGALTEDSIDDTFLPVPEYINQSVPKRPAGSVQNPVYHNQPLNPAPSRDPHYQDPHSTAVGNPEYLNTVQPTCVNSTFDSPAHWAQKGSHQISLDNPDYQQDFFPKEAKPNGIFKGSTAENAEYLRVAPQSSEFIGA
# T5 sequence (P00533 712-979 limits assumed): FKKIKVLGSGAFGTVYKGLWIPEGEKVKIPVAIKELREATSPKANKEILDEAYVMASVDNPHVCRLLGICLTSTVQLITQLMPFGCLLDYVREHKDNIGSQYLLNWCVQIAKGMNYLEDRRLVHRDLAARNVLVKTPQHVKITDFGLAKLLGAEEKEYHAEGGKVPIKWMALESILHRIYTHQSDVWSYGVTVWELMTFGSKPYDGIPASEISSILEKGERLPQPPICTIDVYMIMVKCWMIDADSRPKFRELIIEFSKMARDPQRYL
# Sequence of FGFR2 (P21802 22-821): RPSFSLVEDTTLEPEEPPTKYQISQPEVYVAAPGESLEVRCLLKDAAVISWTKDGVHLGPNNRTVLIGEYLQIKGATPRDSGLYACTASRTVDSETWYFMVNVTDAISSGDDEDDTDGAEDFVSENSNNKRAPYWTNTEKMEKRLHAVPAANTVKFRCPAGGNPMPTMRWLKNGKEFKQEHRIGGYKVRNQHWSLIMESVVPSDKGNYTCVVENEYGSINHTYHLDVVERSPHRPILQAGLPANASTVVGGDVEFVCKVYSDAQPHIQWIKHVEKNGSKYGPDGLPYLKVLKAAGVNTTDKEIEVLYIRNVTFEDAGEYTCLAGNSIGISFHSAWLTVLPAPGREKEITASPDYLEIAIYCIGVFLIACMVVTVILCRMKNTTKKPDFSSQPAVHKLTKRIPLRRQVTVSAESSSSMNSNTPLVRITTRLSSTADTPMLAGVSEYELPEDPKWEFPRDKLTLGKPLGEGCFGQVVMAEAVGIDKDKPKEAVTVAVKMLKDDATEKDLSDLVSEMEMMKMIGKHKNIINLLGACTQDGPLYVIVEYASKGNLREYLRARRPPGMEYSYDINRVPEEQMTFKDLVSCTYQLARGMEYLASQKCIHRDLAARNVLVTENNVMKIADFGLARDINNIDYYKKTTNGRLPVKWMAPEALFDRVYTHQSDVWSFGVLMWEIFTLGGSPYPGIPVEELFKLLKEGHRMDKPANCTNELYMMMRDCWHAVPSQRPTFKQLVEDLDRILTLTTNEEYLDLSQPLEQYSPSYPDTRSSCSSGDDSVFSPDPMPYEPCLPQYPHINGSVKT
# Sequence of FAK (Q05397 whole entry): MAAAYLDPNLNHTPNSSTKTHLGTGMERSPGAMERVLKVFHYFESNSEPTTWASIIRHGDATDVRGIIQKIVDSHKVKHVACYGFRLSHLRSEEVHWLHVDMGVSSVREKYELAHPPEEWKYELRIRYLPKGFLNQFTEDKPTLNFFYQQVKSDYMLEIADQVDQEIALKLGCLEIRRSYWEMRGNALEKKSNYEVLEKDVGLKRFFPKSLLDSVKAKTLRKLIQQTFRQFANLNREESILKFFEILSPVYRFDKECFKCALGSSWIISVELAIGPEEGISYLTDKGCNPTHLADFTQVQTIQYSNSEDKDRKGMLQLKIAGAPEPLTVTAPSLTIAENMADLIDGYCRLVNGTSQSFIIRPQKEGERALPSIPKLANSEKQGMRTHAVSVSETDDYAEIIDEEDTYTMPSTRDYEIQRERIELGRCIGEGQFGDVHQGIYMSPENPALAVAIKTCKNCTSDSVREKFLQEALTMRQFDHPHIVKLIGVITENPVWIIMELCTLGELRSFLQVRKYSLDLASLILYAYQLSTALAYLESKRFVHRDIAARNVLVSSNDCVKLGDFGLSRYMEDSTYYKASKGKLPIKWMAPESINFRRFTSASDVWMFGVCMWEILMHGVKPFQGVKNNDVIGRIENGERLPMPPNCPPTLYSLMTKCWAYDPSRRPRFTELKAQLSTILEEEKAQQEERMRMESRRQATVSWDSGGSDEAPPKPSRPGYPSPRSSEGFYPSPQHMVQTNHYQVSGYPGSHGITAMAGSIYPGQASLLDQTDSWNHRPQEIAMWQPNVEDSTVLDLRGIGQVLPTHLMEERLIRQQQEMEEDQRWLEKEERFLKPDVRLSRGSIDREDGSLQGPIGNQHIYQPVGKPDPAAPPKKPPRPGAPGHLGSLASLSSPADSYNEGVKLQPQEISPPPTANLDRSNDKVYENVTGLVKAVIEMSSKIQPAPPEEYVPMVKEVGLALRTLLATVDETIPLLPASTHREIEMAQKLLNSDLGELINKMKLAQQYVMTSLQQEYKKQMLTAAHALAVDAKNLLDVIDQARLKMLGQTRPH
# Sequence of FLT1 (P17948 27-1338): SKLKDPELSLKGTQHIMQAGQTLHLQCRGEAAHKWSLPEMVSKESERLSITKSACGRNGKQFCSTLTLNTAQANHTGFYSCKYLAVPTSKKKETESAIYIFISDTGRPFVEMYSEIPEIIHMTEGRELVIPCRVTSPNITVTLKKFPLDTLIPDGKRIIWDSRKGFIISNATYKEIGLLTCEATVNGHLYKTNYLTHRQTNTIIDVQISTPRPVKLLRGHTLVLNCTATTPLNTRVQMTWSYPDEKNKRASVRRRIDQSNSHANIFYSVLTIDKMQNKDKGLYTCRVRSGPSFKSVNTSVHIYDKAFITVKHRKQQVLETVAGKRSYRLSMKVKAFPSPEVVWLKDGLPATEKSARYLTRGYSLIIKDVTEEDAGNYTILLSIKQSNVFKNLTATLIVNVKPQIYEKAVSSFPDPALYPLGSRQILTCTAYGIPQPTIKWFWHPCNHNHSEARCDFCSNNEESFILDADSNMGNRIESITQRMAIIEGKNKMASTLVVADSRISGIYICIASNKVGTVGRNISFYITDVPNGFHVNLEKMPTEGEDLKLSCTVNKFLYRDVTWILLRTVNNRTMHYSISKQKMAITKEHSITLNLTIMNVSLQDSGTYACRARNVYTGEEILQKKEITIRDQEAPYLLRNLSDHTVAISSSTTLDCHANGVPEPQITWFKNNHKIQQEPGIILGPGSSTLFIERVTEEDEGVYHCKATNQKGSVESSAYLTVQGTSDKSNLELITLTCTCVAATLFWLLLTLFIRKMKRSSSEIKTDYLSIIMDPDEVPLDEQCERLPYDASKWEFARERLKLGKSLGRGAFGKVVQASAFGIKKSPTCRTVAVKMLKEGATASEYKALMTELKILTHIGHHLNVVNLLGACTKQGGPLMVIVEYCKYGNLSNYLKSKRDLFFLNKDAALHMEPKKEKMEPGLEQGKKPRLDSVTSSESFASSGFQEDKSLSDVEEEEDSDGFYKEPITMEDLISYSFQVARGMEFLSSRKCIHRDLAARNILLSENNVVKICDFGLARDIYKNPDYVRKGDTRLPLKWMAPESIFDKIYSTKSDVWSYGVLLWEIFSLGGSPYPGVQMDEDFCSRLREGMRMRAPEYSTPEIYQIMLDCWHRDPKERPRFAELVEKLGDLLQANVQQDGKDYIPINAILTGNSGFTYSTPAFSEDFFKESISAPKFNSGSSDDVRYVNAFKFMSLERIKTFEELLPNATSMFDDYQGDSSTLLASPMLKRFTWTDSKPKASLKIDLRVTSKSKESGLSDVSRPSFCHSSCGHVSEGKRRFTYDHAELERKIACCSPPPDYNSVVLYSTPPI
structure (smiles),measurement,setting,value
COC(=O)C/C(C)=C/C(=O)O[C@@H]1C[C@@H](C)[C@H]2[C@@H](C=C[C@H](CC(C)C)[C@]2(C)C(=O)/C=C\O)[C@@H]1O [Tandyukisin],IC50,FGFR2,> 100000 nM
same,IC50,HER4,31.1 ± 0.1 nM
same,cell lethality percentage,MCF-10A cells,8.9% ± 1.5%
same,cell lethality percentage,H1299 cells,60.3% ± 3.9%
same,IC50,ECK,> 100000 nM
same,IC50,FLT1,> 100000 nM
same,IC50,ABL,> 100000 nM
same,IC50,FGFR3,> 100000 nM
same,IC50,FAK,> 100000 nM
same,IC50,FGFR1,> 100000 nM
same,IC50,EGFR L858R/T790M,237 ± 28 nM
same,IC50,EGFR T790M,32.6 ± 0.6 nM
same,IC50,WT EGFR,10.6 nM and 10 nM and ~10 nM
same,IC50,EGFR L858R,3.1 ± 0.1 nM
same,melting temperature (Tm) of EGFR kinase domain,EGFR kinase domain,54.2 °C
